In patent US10556905B2, “Processes for preparing a diazabicyclooctane compound” (priority 2012, dated 2020):
Converted amounts (≈) assume the structure as drawn.

How the values were obtained:
[1] = test system: multi-drug resistant tuberculosis (MDR-TB); experiment: Anti-tubercle bacillus activity, liquid medium dilution MIC; format: cell-based; conditions: for MIC: Bacillus, 168 h, read-out: antibacterial activity (MIC) of β-lactam agent alone
[2] = test system: extensively drug-resistant tuberculosis (XDR-TB); experiment: as above; format: cell-based; conditions: for MIC: Bacillus, 168 h, read-out: antibacterial activity (MIC) of β-lactam agent alone

Structure (SMILES)	MIC [1]	MIC [2]	other results
CC1(C)S[C@@H]2[C@H](NC(=O)[C@H](N)c3ccc(O)cc3)C(=O)N2[C@H]1C(=O)O [AMPC, amoxicillin, reference compound]	128 µg/mL (≈ 350 µM)	64 µg/mL (≈ 175 µM)	
NCCONC(=O)[C@@H]1CC[C@@H]2CN1C(=O)N2OS(=O)(=O)O [Example 59, (2S,5R)—N-(2-Aminoethoxy)-7-oxo-6-(sulfooxy)-1,6-diazabicyclo[3.2.1]octane-2-carboxamide]			antibacterial activity (MIC) of ABPC in combinatorial use ([1]; ABPC + 4 μg/mL compound, MDR-TB): 32 µg/mL; antibacterial activity (MIC) of AMPC in combinatorial use ([1]; AMPC + 4 μg/mL compound, MDR-TB): 64 µg/mL; antibacterial activity (MIC) of BIPM in combinatorial use ([1]; BIPM + 4 μg/mL compound, MDR-TB): 4 µg/mL; antibacterial activity (MIC) of MEPM in combinatorial use ([1]; MEPM + 4 μg/mL compound, MDR-TB): 8 µg/mL; antibacterial activity (MIC) of TBPM in combinatorial use ([1]; TBPM + 4 μg/mL compound, MDR-TB): 2 µg/mL; antibacterial activity (MIC) of ABPC in combinatorial use ([2]; ABPC + 4 μg/mL compound, XDR-TB): 16 µg/mL; antibacterial activity (MIC) of AMPC in combinatorial use ([2]; AMPC + 4 μg/mL compound, XDR-TB): 16 µg/mL; antibacterial activity (MIC) of BIPM in combinatorial use ([2]; BIPM + 4 μg/mL compound, XDR-TB): 1 µg/mL; antibacterial activity (MIC) of MEPM in combinatorial use ([2]; MEPM + 4 μg/mL compound, XDR-TB): 1 µg/mL; antibacterial activity (MIC) of TBPM in combinatorial use ([2]; TBPM + 4 μg/mL compound, XDR-TB): 0.5 µg/mL
C[C@@H](O)[C@H]1C(=O)N2C(C(=O)O)=C(S[C@@H]3CN[C@H](C(=O)N(C)C)C3)[C@H](C)[C@H]12 [MEPM, meropenem, reference compound]	16 µg/mL (≈ 41.7 µM)	4 µg/mL (≈ 10.4 µM)	
CC1(C)S[C@@H]2[C@H](NC(=O)[C@H](N)c3ccccc3)C(=O)N2[C@H]1C(=O)O [ABPC, ampicillin, reference compound]	128 µg/mL (≈ 366 µM)	32 µg/mL (≈ 91.6 µM)	
C[C@@H](O)[C@H]1C(=O)N2C(C(=O)[O-])=C(SC3Cn4cnc[n+]4C3)[C@H](C)[C@H]12 (some centres unmarked) [BIPM, biapenem, reference compound]	16 µg/mL (≈ 45.7 µM)	2 µg/mL (≈ 5.71 µM)	
C[C@@H](O)[C@H]1C(=O)N2C(C(=O)O)=C(SC3CN(C4=NCCS4)C3)[C@H](C)[C@H]12 [TBPM, tebipenem, reference compound]	4 µg/mL (≈ 10.4 µM)	1 µg/mL (≈ 2.61 µM)	
